The target in experiment [1] is Bacillus anthracis. The experiment is described as follows: Inhibition of inosine and alanine-induced germination of Bacillus anthracis Sterne spore pre-incubated for 15 mins. It counts as functional, organism-based.
Experiment [2] concerns Bacillus anthracis. The experiment is described as follows: Inhibition of cytopathic effect in Bacillus anthracis Sterne infected mouse RAW264.7 macrophage after 6 hrs by propidium iodide exclusion assay. It counts as functional, organism-based.
Experiment [3] concerns Bacillus anthracis. The experiment is described as follows: Inhibition of cytopathic effect in Bacillus anthracis Sterne infected mouse RAW264.7 macrophage at 1 uM to 2 uM after 6 hrs by propidium iodide exclusion assay. The format is functional. More on the design: scale not given: the % may be the effect or the level left.
In experiment [4] the test system is Bacillus anthracis. The experiment is described as follows: Inhibition of cytopathic effect in Bacillus anthracis Sterne infected mouse RAW264.7 macrophage assessed as lack of propidium iodide positive cells after 7 hrs. It counts as functional, organism-based.

The source made the active and inactive calls. No cut-off for these calls is given here.

On to `CSc1ncnc2c1ncn2[C@@H]1O[C@H](CO)[C@@H](O)[C@H]1O`, for which, on Bacillus anthracis [1], affinity was put at a Ki of 31 µM. Besides, the result in the experiment on Bacillus anthracis [2] was inactive.

Molecule `Nc1nc(=S)c2ncn([C@@H]3O[C@H](CO)[C@@H](O)[C@H]3O)c2[nH]1` [THIOGUANOSINE] had a Ki at Bacillus anthracis [1] of 98 µM. The Activity in the experiment on Bacillus anthracis [3] is 88%. Further, in the experiment on Bacillus anthracis [4], the outcome was Active.

As for `Nc1nc(N)c2ncn([C@@H]3O[C@H](CO)[C@@H](O)[C@H]3O)c2n1`, the affinity at Bacillus anthracis [1] corresponds to a Ki of 68 µM. In addition, in the experiment with Bacillus anthracis [2], the outcome was inactive.

At Bacillus anthracis [1], `OC[C@H]1O[C@@H](n2cnc3c(O)nc(O)nc32)[C@H](O)[C@@H]1O` [XANTHOSINE] showed an inhibition constant (Ki) of 777 µM. For the same molecule, the outcome in the experiment with Bacillus anthracis [2] was inactive.

For `COc1nc(N)nc2c1ncn2[C@@H]1O[C@H](CO)[C@@H](O)[C@H]1O`, the Ki at Bacillus anthracis [1] was found to be 34 µM. Further, in the experiment on Bacillus anthracis [2], the outcome was inactive.

For `Nc1nc(Cl)c2ncn([C@@H]3O[C@H](CO)[C@@H](O)[C@H]3O)c2n1`, the Ki on Bacillus anthracis [1] came out at 87 µM. In addition, in the experiment on Bacillus anthracis [2], the outcome was inactive.

Source of the values: ChEMBL document CHEMBL1147065, “Identification of an in vivo inhibitor of Bacillus anthracis spore germination” (J Biol Chem, 2007).
